Measured values from patent US11542316B2, “S-Arrestin peptides and therapeutic uses thereof” (APITOPE INTERNATIONAL NV, priority 2017, dated 2023).
Ends that are not written are not given here.

Key:
[1] = test system: SAg-specific hybridoma cells / T cell line with VAVY APC; experiment: Antigen Processing Independent Presentation System (APIPS) assay, fresh or fixed VAVY APC; assay type: cell-based, DR3 mice; conditions: DR3 hybridoma clone (IL-2, 48 h) or T cell line (IFN-γ, 24 h)
Method: (§1) FIG. 2: identification of apitopes within HIP-115. (A) DR3 mice were immunized with SAg and hybridomas were generated. 5×10^4 SAg-specific hybridoma cells were cultured with 5×10^4 fresh or fixed commercial APC (VAVY) cells. T cell proliferation was measured by IL-2 ELISA on supernatants collected after 48 h. The graph represents the mean of duplicate measurements±SEM. (B) DR3 mice were immunized with HIP-115 and a T cell line was established. Ten days after immunization the LN and spleens were harvested and cultured with different concentrations of peptide (0.1-1-2.5 and 5 μg/ml); 2×10^6 cells/ml APC+1×10^6 cells/ml CD4 T cells per well. At day 7 the cells were re-stimulated with the same concentrations of peptide. On day 14 an APIPS test was done using commercial APC (VAVY). After 24 h, antigen-induced T cell activation was measured by IFN-γ ELISA and shown as IFN-γ concentration (pg/ml). The graph represents the mean of duplicate measurements±SEM. LN, lymph nodes; APC, Antigen presenting cell; APIPS, Antigen Processing Independent Presentation System.
as §1, with “3:” for “2:”, “HIP-241125.” for “HIP-115.”, “HIP-241125+HIP-24DG” for “HIP-115”
(§2) FIG. 5: Identification of apitopes within HIP-17GN. DR3 mice were immunized with HIP-17GN and a T cell line was established. Ten days after immunization the LN and spleens were harvested and cultured with different concentrations of peptide (0.1-1-2.5 and 5 μg/ml); 2×10^6 cells/ml APC+1×10^6 cells/ml CD4 T cells per well. At day 7 the cells were re-stimulated with the same concentrations of peptide. On day 14 an APIPS test was done using commercial APC (VAVY). After 24 h, antigen-induced T cell activation was measured by IFN-γ ELISA and shown as OD values. The graph represents the mean of triplicate measurements±SEM. LN, lymph nodes; APC, Antigen presenting cell; APIPS, Antigen Processing Independent Presentation System.
as §2, with “6:” for “5:”, “HIP-12AK.” for “HIP-17GN.”, “HIP-12AK” for “HIP-17GN”, “IFN-γ concentration (pg/ml).” for “OD values.”, “duplicate” for “triplicate”
Antigen-specific clones or TCL were tested for their reactivity to the peptides, presented by fixed or not fixed (fresh) cells (VAVY or MGAR) (=APCs). 5×10^4 cells from the individual clones were cultured with 10 μg/ml peptide and 5×10^4 fixed or fresh APCs. […]

[2] = test system: LN cells and splenocytes upon SAg or peptide restimulation; experiment: Ex vivo tolerization experiment, DR3tg mice; assay type: in vivo; conditions: DR3 mice, IFN-γ; for tolerization against SAg: escalating dose regime s.c.
Method: FIG. 7: Ex vivo tolerisation protocol. Mice are injected subcutaneously in the flank with 0.1 μg/ml, 1 μg/ml and 10 μg/ml peptide on days −15, −13 and −11, followed by 3 injections of 100 μg/ml on days −8, −6 and −4 (escalating dose regime). On day 0, mice are immunized subcutaneously at the base of the tail with SAg/CFA or peptide/CFA. Mice are sacrificed 10 days after immunization to measure proliferation of LN cells and splenocytes upon SAg or peptide restimulation. LN, lymph nodes.
FIG. 8: Ex vivo tolerance induction by HIP-115NE3-KKK apitope. DR3 mice are injected subcutaneously in the flank with 0.1 μg/ml, 1 μg/ml and 10 μg/ml HIP-115NE3-KKK on days −15, −13 and −11, followed by 3 injections of 100 μg/ml on days −8, −6 and −4 (escalating dose regime). On day 0, mice are immunized subcutaneously at the base of the tail with HIP-115/CFA. Mice are sacrificed 10 days after immunization to measure proliferation of LN cells and splenocytes upon SAg or peptide restimulation. Data represent mean±SEM of the concentration or OD values for the PBS-treated mice (black lines) and peptide-treated mice (color lines). Two-way ANOVA was used to measure overall treatment effects on T cell activation and p-values are written in the graphs. Bonferonni post-hoc testing was used and significant differences are indicated in the graphs (* p<0.05; **** p<0.0001). LN, lymph nodes. (A) Tolerisation against SAg in LN. IFN-γ production expressed as IFN-γ concentration (pg/ml). (B) Tolerisation against SAg in spleen. IFN-γ production expressed as IFN-γ concentration (pg/ml). (C) Tolerisation against HIP-115 and HIP-115NE3 peptides in LN. IFN-γ production expressed as OD values. (D) Tolerisation against HIP-115 and HIP-115NE3 peptides in spleen. IFN-γ production expressed as OD values.
FIG. 9: Ex vivo tolerance induction by HIP-11B apitope. DR3 mice are injected subcutaneously in the flank with 0.1 μg/ml, 1 μg/ml and 10 μg/ml HIP-11B on days −15, −13 and −11, followed by 3 injections of 100 μg/ml on days −8, −6 and −4 (escalating dose regime). On day 0, mice are immunized subcutaneously at the base of the tail with HIP-11B/CFA. Mice are sacrificed 10 days after immunization to measure proliferation of LN cells and splenocytes upon SAg or peptide restimulation. Data represent mean±SEM of the concentration values for the PBS-treated mice (black lines) and peptide-treated mice (color lines). IFN-γ production expressed as IFN-γ concentration (pg/ml). Two-way ANOVA was used to measure overall treatment effects on T cell activation and p-values are written in the graphs. Bonferonni post-hoc testing was used and significant differences are indicated in the graphs (* p<0.05; **** p<0.0001). LN, lymph nodes. (A) Tolerisation against SAg in LN. (B) Tolerisation against SAg in spleen. (C) Tolerisation against HIP-11B peptide in LN. (D) Tolerisation against HIP-11B peptide in spleen.
FIG. 10: Ex vivo tolerance induction by HIP-24DG apitope. DR3 mice are injected subcutaneously in the flank with 0.1 μg/ml, 1 μg/ml and 10 μg/ml HIP-24DG on days −15, −13 and −11, followed by 3 injections of 100 μg/ml on days −8, −6 and −4 (escalating dose regime). On day 0, mice are immunized subcutaneously at the base of the tail with HIP-24DG+HIP-24HM/CFA. Mice are sacrificed 10 days after immunization to measure proliferation of LN cells and splenocytes upon SAg or peptide restimulation. Data represent mean±SEM of the OD values for the PBS-treated mice (black lines) and peptide-treated mice (color lines). IFN-γ production expressed as OD values. LN, lymph nodes. Two-way ANOVA was used to measure overall treatment effects on T cell activation and p-values are written in the graphs. Bonferonni post-hoc testing was used and significant differences are indicated in the graphs (* p<0.05; ** p<0.01; *** p<0.001: **** p<0.0001). LN, lymph nodes. (A) Tolerisation against SAg in LN. (B) Tolerisation against HIP-24DG in LN. (C) Tolerisation against HIP-24HM2 peptide in LN. […]

Solubility of peptides = assay type: physicochemical
Method: The solubility of potential apitopes from S—Ag are determined by visual observations and turbidity measurement by UV spectrophotometry at 280 nm. The solubility of the peptides can be modified by adding amino acids ‘GKK’ or ‘KKK’ (or similar) on both the C- and N-terminus of the sequence. Modifications that may be suitable are described in WO2014/072958 (which is hereby incorporated by reference).
For some of these peptides, the parental peptides were insoluble, and solubility is a critical parameter for them to work as a tolerogenic peptide. Several end-terminal modifications can be used and as example used here they were improved by addition of 3 lysines before and after the original peptide sequence (labelled as ‘-KKK’ versions).

Substance	behaves as apitope (response to peptide presented by fresh or fixed APC) [1]	other results
ERRGIALDGKIKH-NH2 [HIP-11AC1, ERRGIALDGKIKH]	behave as apitopes	
HIP-17K1-KKK: '-KKK' version (3 lysines before and after the sequence) of HIP-17K1; its sequence is not printed (KKKTFRRDLYFSRVQKKK)	behave as apitopes	
KKKVLGILVSYQIKVKLTKKK-NH2 [HIP-12E-KKK]	behave as apitopes	
VIGLTFRRDLYFSRVQVYPPVG-NH2 [HIP-17GN]	behave as apitopes	
RERRGIALDGKIKHE-NH2 [HIP-11B, RERRGIALDGKIKHE]	behave as apitopes	tolerization against the peptide itself / peptides of the same region ([2]; LN): tolerization induced; tolerization against SAg ([2]; LN): tolerization induced; tolerization against the peptide itself ([2]; spleen): tolerization induced; tolerization against SAg ([2]; spleen): tolerization induced
HVIFKKISRDKSVTIYLGN-NH2 [HIP-115NE, HVIFKKISRDKSVTIYLGN]	behave as apitopes	
LTLLPLLANNRERRGIALDG-NH2 [HIP-24HM]	behave as apitopes	
FKKISRDKSVTIY-NH2 [HIP-115NE2, FKKISRDKSVTIY]	behave as apitopes	
NRERRGIALDGKIKHED-NH2 [HIP-11AC, NRERRGIALDGKIKHED]	behave as apitopes	
LTLLPLLANNRERRGIALDGKIKHEDTNLASSTIIKEG-NH2 [HIP-241125]	behave as apitopes	
KKISRDKSVTI-NH2 [HIP-115NE1, KKISRDKSVTI]	behave as apitopes	
KKKVIGLTFRRDLYFSRVQVYPPVGKKK-NH2 [HIP-17GN-KKK]	behave as apitopes	tolerization against SAg ([2]; spleen): tolerization induced
LTFRRDLYFSRVQVY-NH2 [HIP-17J, LTFRRDLYFSRVQVY]	behave as apitopes	
GILVSYQIKVK-NH2 [HIP-12G1, GILVSYQIKVK]	behave as apitopes	
PLLANNRERRGI-NH2 [HIP-24HM2, PLLANNRERRGI]	behave as apitopes	solubility (Solubility of peptides): soluble
